# Where “and” joins values, the source holds several entries; their conditions need not be identical. Equal values may be shown once. Read-outs that look alike come from different tables or passages of the source.
# Experiments:
# nikD Glu101Gln [1] = target: T1, nikD Glu101Gln (Streptomyces tendae, UniProt Q9X9P9, E101Q); test: biochemical; assay type: binding
# nikD Asp276Asn [2] = target: T2, nikD Asp276Asn (Streptomyces tendae, UniProt Q9X9P9, D276N); test: biochemical; assay type: binding
# wild-type nikD [3] = conditions: spectral titration, 100 mM potassium phosphate buffer, pH 8.0, 25 °C; cited from earlier work
# nikD Glu101Gln [4] = target: T1, nikD Glu101Gln; conditions: pH 8
# nikD Glu101Gln [5] = target: T1, nikD Glu101Gln; test: biochemical
# wild-type nikD [6] = conditions: cited from earlier work
# nikD Asp276Asn [7] = target: T2, nikD Asp276Asn; test: Anaerobic reductive half-reaction with P2C; assay type: biochemical
# wild-type nikD [8] = conditions: pH 8.0, 25 °C, cited from earlier work
# nikD Asp276Asn [9] = target: T2, nikD Asp276Asn; test: Steady-state turnover with P2C and oxygen; assay type: biochemical
# nikD Glu101Gln [10] = target: T1, nikD Glu101Gln; test: Anaerobic reductive half-reaction with P2C; assay type: biochemical
# wild-type nikD [11] = conditions: saturating P2C and oxygen, pH 8.0, 25 °C; cited from earlier work
# nikD Glu101Gln [12] = target: T1, nikD Glu101Gln; test: Steady-state turnover with P2C and oxygen; assay type: biochemical
# [13] = ionization at the N(3)H position in free FAD; cited from earlier work
# [14] = one-step binding, pH 8.0, 25 °C
# [15] = apparent second-order rate constant from stopped-flow data, pH 8.0, 25 °C
# [16] = limiting rate of fast phase at saturating P2C, pH 8.0, 25 °C
# [17] = saturating concentrations of P2C and oxygen
# [18] = very fast phase preceding fast phase, pH 8.0, 25 °C
smiles,measurement,setting,value
O=C(O)c1ccccn1 [picolinate],Kd,nikD Glu101Gln [1],151 ± 2 µM
same,Kd,nikD Asp276Asn [2],420 ± 20 µM
same,Kd,wild-type nikD [3],290 ± 40 µM
same,k3,nikD Glu101Gln [4],192 ± 9 s⁻¹
same,k4,nikD Glu101Gln [4],27 ± 1 s⁻¹
same,Kd,nikD Glu101Gln [5],180 ± 30 µM
same,k1,wild-type nikD [6]; [14],2.83 ± 0.04 × 10^4 M^-1 s^-1
same,k2,wild-type nikD [6]; [14],8.0 ± 0.7 s⁻¹
same,Kd,"wild-type nikD [6]; read-out: Kd macroscopic (calc), calculated, equals k2/k1, pH 8.0, 25 °C",280 ± 30 µM
"O=C(O)C1=NCCCC1 [P2C, piperideine-2-carboxylate]",Kd,nikD Asp276Asn [7],110 ± 10 µM
same,klim/Kd app,nikD Asp276Asn [7]; [15],1.01 ± 0.01 × 10^5 M^-1 s^-1 and 1.01 ± 0.09 × 10^5 M^-1 s^-1
same,klim,nikD Asp276Asn [7]; [16],11.1 ± 0.2 s⁻¹
same,"klim, fold faster than observed turnover rate (kcat)",nikD Asp276Asn [7]; saturating P2C,about 10 fold
same,"klim, fold slower than limiting rate with wild-type nikD",nikD Asp276Asn [7]; saturating P2C,about 5 fold
same,kslow,"nikD Asp276Asn [7]; slow phase, independent of P2C concentration, pH 8.0, 25 °C",3.0 ± 0.3 s⁻¹
same,klim,wild-type nikD [8]; limiting rate of fast phase at saturating P2C,53 ± 1 s⁻¹
same,klim/Kd app,wild-type nikD [8],2.0 ± 0.2 × 10^5 M^-1 s^-1
same,Kd,"wild-type nikD [8]; read-out: Kd app, hyperbolic fit of fast phase",260 ± 20 µM
same,kslow,"wild-type nikD [8]; slow phase, independent of P2C concentration",2.7 ± 0.1 s⁻¹
same,Ki,nikD Asp276Asn [9],8 µM
same,kcat,"nikD Asp276Asn [9]; saturating P2C and oxygen, sequential mechanism fit, pH 8.0, 25 °C",1.22 ± 0.04 s⁻¹
same,"turnover rate, fold slower than wild-type nikD",nikD Asp276Asn [9]; [17],about 2 fold
same,Kd,nikD Glu101Gln [10],1400 ± 200 µM
same,klim/Kd app,nikD Glu101Gln [10]; [15],9 ± 1 × 10^3 M^-1 s^-1
same,klim,nikD Glu101Gln [10]; [16],13.9 ± 0.9 s⁻¹
same,"klim, fold faster than observed turnover rate (kcat)",nikD Glu101Gln [10]; saturating P2C,about 30 fold
same,"klim, fold slower than limiting rate with wild-type nikD",nikD Glu101Gln [10]; saturating P2C,about 4 fold
same,"kvery fast, Y-intercept of linear dependence on P2C concentration",nikD Glu101Gln [10]; [18],10.1 ± 0.9 s⁻¹
same,"kvery fast, slope of linear dependence on P2C concentration",nikD Glu101Gln [10]; [18],8.8 ± 0.2 × 10^3 M^-1 s^-1
same,kcat,wild-type nikD [11],2.3 ± 0.2 s⁻¹
same,kcat,"nikD Glu101Gln [12]; saturating P2C and oxygen, ping-pong mechanism fit, pH 8.0, 25 °C",0.50 ± 0.01 s⁻¹
same,"turnover rate, fold slower than wild-type nikD",nikD Glu101Gln [12]; [17],about 5 fold
O=C(O)C1=CCCCC1 [1-cyclohexenoate],Kd,nikD Glu101Gln [1],0.9 ± 0.1 µM
same,Kd,nikD Asp276Asn [2],6.5 ± 0.9 µM
same,Kd,wild-type nikD [3],12.8 ± 0.9 µM
C[Se]CC(=O)O [methylselenoacetate],Kd,nikD Glu101Gln [1],112 ± 3 µM
same,Kd,nikD Asp276Asn [2],1000 ± 30 µM
same,Kd,wild-type nikD [3],1070 ± 40 µM
"Cc1cc2nc3c(=O)[nH]c(=O)nc-3n(C[C@H](O)[C@H](O)[C@H](O)COP(=O)(O)OP(=O)(O)OC[C@H]3O[C@@H](n4cnc5c(N)ncnc54)[C@H](O)[C@@H]3O)c2cc1C [FAD, flavin adenine dinucleotide]",pKa,[13],10.4

# Source: publication PMC2764525 (Biochemistry, 2009)
